Where two headings read alike, the source gives them in different places.
Assays:
[1] = tested on: CsgA gene expression (csgBAC promoter-GFP reporter) in E. coli UTI89; assay: In vitro live cell fluorescent reporter assay of CsgA transcription (Reporter Assay); assay type: cell-based; details: Escherichia coli
Summary of the method: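 Chromosomal single-copy csgBAC promoter–GFP reporter in E. coli UTI89, started at OD600 0.003 in YESCA broth with compound (0.14–100 μM, 1% DMSO), 20 h at 27 °C. GFP (ex 485/em 525 nm) background-subtracted and normalized to vehicle; IC50 and X[50] from curve fits. OD600 tracked growth effects.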

[2] = target: T1, E. coli CsgA (Escherichia coli, UniProt P28307); assay: In vitro ThioflavinT assay of CsgA aggregation (CsgA ThT Assay); assay type: biochemical
T1 construct: made in house; host or cells: E. coli NEB 3016 slyD::kan, pET11d
Summary of the method: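 Purified C-terminal His-tagged CsgA, monomerised by desalting and 30-kDa filtration, at 2-20 μM with 20-40 μM ThT in 50 mM potassium phosphate pH 7.3, 1% DMSO, compounds 3.125-200 uM; room temperature, fluorescence (ex 438/em 495 nm) read every 15 min. Background-subtracted signal expressed as percent inhibition versus vehicle at 6-6.5 or 8-9 h, or as percent control AUC.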

[3] = read-out: Reporter Assay Abs IC50 (μM), median Abs IC50 in the CsgA reporter assay, N/A = maximum expression reduction is <50% of control
[4] = read-out: Reporter Assay Abs IC50, activity range, class symbol
[5] = read-out: CsgA ThT Assay (2 μM CsgA) % Control Bmax 25 μM, activity range, class symbol, CsgA 2 μM, white plates, compound 25 μM
[6] = read-out: CsgA ThT Assay (2 μM CsgA) % Control Bmax 25 μM, mean Bmax as percentage of DMSO control, CsgA 2 μM, white plates, compound 25 μM
[7] = read-out: CsgA ThT Assay (2 μM CsgA) % Control Bmax 100 μM, activity range, class symbol, CsgA 2 μM, white plates, compound 100 μM
[8] = read-out: CsgA ThT Assay (2 μM CsgA) % Control Bmax 100 μM, mean Bmax as percentage of DMSO control, CsgA 2 μM, white plates, compound 100 μM
[9] = read-out: Reporter Assay Abs IC50 (activity range), median Abs IC50 in the CsgA reporter assay, class symbol
[10] = read-out: CsgA ThT Assay (10 μM CsgA) % Control AUC at 1005 minutes, 25 μM (activity range), CsgA 10 μM, black plates, compound 25 μM, 1005 minutes, class symbol
[11] = read-out: CsgA ThT Assay (10 μM CsgA) % Control AUC at 1005 minutes, 25 μM, mean AUC as % of DMSO control, CsgA 10 μM, black plates, compound 25 μM, 1005 minutes
[12] = read-out: CsgA ThT Assay (10 μM CsgA) % Control AUC at 1005 minutes, 100 μM (activity range), CsgA 10 μM, black plates, compound 100 μM, 1005 minutes, class symbol
[13] = read-out: CsgA ThT Assay (10 μM CsgA) % Control AUC at 1005 minutes, 100 μM, mean AUC as % of DMSO control, CsgA 10 μM, black plates, compound 100 μM, 1005 minutes

T1 sequence (P28307 23-151): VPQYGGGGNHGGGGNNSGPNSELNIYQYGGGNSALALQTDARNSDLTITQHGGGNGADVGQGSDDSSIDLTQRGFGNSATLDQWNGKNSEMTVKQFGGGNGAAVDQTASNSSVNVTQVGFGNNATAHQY

`NC(=O)c1c(Cc2cccc3ccccc23)c(-c2cccc(C(F)(F)F)c2)c2n(c1=O)C(C(=O)O)CN(CCCCO)S2(=O)=O` (stereo not drawn) [Compound 183, 7-carbamoyl-2-(4-hydroxybutyl)-8-(naphthalen-1-ylmethyl)-6-oxo-9-(3-(trifluoromethyl)phenyl)-3,4-dihydro-2H,6H-pyrido[1,2-e][1,2,5]thiadiazine-4-carboxylic acid 1,1-dioxide] was tested, and the IC50 [1, 3] was 0.8 µM, the IC50 [1, 4] was < 1.3 µM and the remaining activity at 25 µM [2, 5] was 31 to 60%. It also gave a remaining activity at 25 µM [2, 6] of 32%, a remaining activity at 100 µM [2, 7] of 11 to 31% and a remaining activity at 100 µM [2, 8] of 26%.
With `O=C(O)C1CN(Cc2ccccc2)c2c(-c3ccc(Br)cc3)c(Cc3cccc4ccccc34)c(Cl)c(=O)n21` (stereo not drawn) [Compound 201, 1-benzyl-8-(4-bromophenyl)-6-chloro-7-(naphthalen-1-ylmethyl)-5-oxo-1,2,3,5-tetrahydroimidazo[1,2-a]pyridine-3-carboxylic acid] the IC50 [1, 3] was 1.8 µM, the IC50 [1, 4] was 1.3 to 4.5 µM and the remaining activity at 25 µM [2, 5] was > 60%. It also gave a remaining activity at 25 µM [2, 6] of 70%, a remaining activity at 100 µM [2, 7] of 31 to 60% and a remaining activity at 100 µM [2, 8] of 35%.
With `CCCN1CC(C(=O)O)n2c(c(-c3cccc(C(F)(F)F)c3)c(Cc3cccc4ccccc34)c(OCCc3ccccc3)c2=O)S1(=O)=O` (stereo not drawn) [Compound 001, 8-(naphthalen-1-ylmethyl)-6-oxo-7-phenethoxy-2-propyl-9-(3-(trifluoromethyl)phenyl)-3,4-dihydro-2H,6H-pyrido[1,2-e][1,2,5]thiadiazine-4-carboxylic acid 1,1-dioxide] the IC50 [1, 9] was 1.3 to 4.5 µM, the IC50 [1, 3] was 1.5 µM and the remaining activity at 25 µM [2, 10] was 31 to 60%. It also gave a remaining activity at 25 µM [2, 11] of 36%, a remaining activity at 100 µM [2, 12] of 31 to 60% and a remaining activity at 100 µM [2, 13] of 35%.
With `CC(C)CN1CC(C(=O)O)n2c(c(-c3cccc(C(F)(F)F)c3)c(Cc3cccc4ccccc34)c(NC3CCCC3)c2=O)S1(=O)=O` (stereo not drawn) [Compound 145, 7-(cyclopentylamino)-2-isobutyl-8-(naphthalen-1-ylmethyl)-6-oxo-9-(3-(trifluoromethyl)phenyl)-3,4-dihydro-2H,6H-pyrido[1,2-e][1,2,5]thiadiazine-4-carboxylic acid 1,1-dioxide] the IC50 [1, 3] was 2 µM, the IC50 [1, 4] was 1.3 to 4.5 µM and the remaining activity at 25 µM [2, 5] was > 60%. It also gave a remaining activity at 25 µM [2, 6] of 76%, a remaining activity at 100 µM [2, 7] of 31 to 60% and a remaining activity at 100 µM [2, 8] of 39%.
`CCCCCN1CC(C(=O)O)n2c(c(-c3cccc(C(F)(F)F)c3)c(Cc3cccc4ccccc34)c(N)c2=O)S1(=O)=O` (stereo not drawn) [Compound 094, 7-amino-8-(naphthalen-1-ylmethyl)-6-oxo-2-pentyl-9-(3-(trifluoromethyl)phenyl)-3,4-dihydro-2H,6H-pyrido[1,2-e][1,2,5]thiadiazine-4-carboxylic acid 1,1-dioxide] gave an IC50 [1, 9] of 1.3 to 4.5 µM, an IC50 [1, 3] of 1.9 µM and a remaining activity at 25 µM [2, 10] of 31 to 60%. For the same compound, the remaining activity at 25 µM [2, 11] was 51%, the remaining activity at 100 µM [2, 12] was 11 to 31% and the remaining activity at 100 µM [2, 13] was 30%.
`O=C(O)C1CN(CCCCCO)S(=O)(=O)c2c(-c3cccc(C(F)(F)F)c3)c(Cc3cccc4ccccc34)cc(=O)n21` (stereo not drawn) [Compound 086, 2-(5-hydroxypentyl)-8-(naphthalen-1-ylmethyl)-6-oxo-9-(3-(trifluoromethyl)phenyl)-3,4-dihydro-2H,6H-pyrido[1,2-e][1,2,5]thiadiazine-4-carboxylic acid 1,1-dioxide] showed an IC50 [1, 9] of 4.6 to 10 µM, an IC50 [1, 3] of 9.6 µM and a remaining activity at 25 µM [2, 10] of 31 to 60%. The remaining activity at 25 µM [2, 11] was 33%, the remaining activity at 100 µM [2, 12] was 11 to 31% and the remaining activity at 100 µM [2, 13] was 20%.
With `O=C(O)C1CS(=O)(=O)c2c(-c3cccc(C(F)(F)F)c3)c(Cc3cccc4ccccc34)cc(=S)n21` (single isomer, unassigned) [Compound 014b, 7-(naphthalen-1-ylmethyl)-5-thioxo-8-(3-(trifluoromethyl)phenyl)-2,3-dihydro-5H-thiazolo[3,2-a]pyridine-3-carboxylic acid 1,1-dioxide] the IC50 [1, 9] was > 10 µM, the IC50 [1, 3] was 44 µM and the “CsgA ThT Assay (10 μM CsgA) % Control AUC at 1005 minutes, 25 μM (activity range)” value ([2]; CsgA 10 μM, black plates, compound 25 μM, 1005 minutes, class symbol) was “(+) (% control AUC of greater than 60%)”. The “CsgA ThT Assay (10 μM CsgA) % Control AUC at 1005 minutes, 100 μM (activity range)” value ([2]; CsgA 10 μM, black plates, compound 100 μM, 1005 minutes, class symbol) was “(+++) (% control AUC of 11 to 31%)”, the “CsgA ThT Assay (10 μM CsgA) % Control AUC at 1005 minutes, 25 μM” value ([2]; mean AUC as % of DMSO control, CsgA 10 μM, black plates, compound 25 μM, 1005 minutes) was 71% and the “CsgA ThT Assay (10 μM CsgA) % Control AUC at 1005 minutes, 100 μM” value ([2]; mean AUC as % of DMSO control, CsgA 10 μM, black plates, compound 100 μM, 1005 minutes) was 26%.
`O=C(O)c1c(Cc2ccccc2)sc2c(-c3cccc(C(F)(F)F)c3)c(Cc3cccc4ccccc34)cc(=O)n12` [Compound 060, 2-benzyl-7-(naphthalen-1-ylmethyl)-5-oxo-8-(3-(trifluoromethyl)phenyl)-5H-thiazolo[3,2-a]pyridine-3-carboxylic acid] was tested, and the IC50 [1, 9] was 1.3 to 4.5 µM, the IC50 [1, 3] was 1.4 µM and the remaining activity at 25 µM [2, 10] was > 60%. For the same compound, the remaining activity at 25 µM [2, 11] was 91%, the remaining activity at 100 µM [2, 12] was > 60% and the remaining activity at 100 µM [2, 13] was 98%.
In the case of `Nc1c(Cc2cccc3ccccc23)c(-c2cccc(C(F)(F)F)c2)c2n(c1=O)C(C(=O)O)CN(C[C@@H](O)CO)S2(=O)=O` (stereo partly drawn) [Compound 096, 7-amino-2-((R)-2,3-dihydroxypropyl)-8-(naphthalen-1-ylmethyl)-6-oxo-9-(3-(trifluoromethyl)phenyl)-3,4-dihydro-2H,6H-pyrido[1,2-e][1,2,5]thiadiazine-4-carboxylic acid 1,1-dioxide], the IC50 [1, 9] is reported as > 10 µM, the IC50 [1, 3] is reported as 22.9 µM and the remaining activity at 25 µM [2, 10] is reported as > 60%. The remaining activity at 25 µM [2, 11] was 79%, the remaining activity at 100 µM [2, 12] was > 60% and the remaining activity at 100 µM [2, 13] was 71%.
`CCc1c(Cc2cccc3ccccc23)c(-c2cccc(C(F)(F)F)c2)c2n(c1=O)C(C(=O)O)CN(CCCCO)S2(=O)=O` (stereo not drawn) [Compound 113, 7-ethyl-2-(4-hydroxybutyl)-8-(naphthalen-1-ylmethyl)-6-oxo-9-(3-(trifluoromethyl)phenyl)-3,4-dihydro-2H,6H-pyrido[1,2-e][1,2,5]thiadiazine-4-carboxylic acid 1,1-dioxide] was tested, and the IC50 [1, 9] was 4.6 to 10 µM, the IC50 [1, 3] was 4.6 µM and the remaining activity at 25 µM [2, 10] was 31 to 60%. For the same compound, the remaining activity at 25 µM [2, 11] was 41%, the remaining activity at 100 µM [2, 12] was 11 to 31% and the remaining activity at 100 µM [2, 13] was 24%.
With `CN1CC(C(=O)O)n2c(c(-c3cccc(C(F)(F)F)c3)c(Cc3cccc4ccccc34)c(Br)c2=O)S1(=O)=O` (stereo not drawn) [Compound 058, 7-bromo-2-methyl-8-(naphthalen-1-ylmethyl)-6-oxo-9-(3-(trifluoromethyl)phenyl)-3,4-dihydro-2H,6H-pyrido[1,2-e][1,2,5]thiadiazine-4-carboxylic acid 1,1-dioxide] the IC50 [1, 9] was > 10 µM, the IC50 [1, 3] was 19.8 µM and the remaining activity at 25 µM [2, 10] was 31 to 60%. The remaining activity at 25 µM [2, 11] was 47%, the remaining activity at 100 µM [2, 12] was 11 to 31% and the remaining activity at 100 µM [2, 13] was 22%.
Work on `CCCN1CC(C(=O)O)n2c(c(-c3cccc(C(F)(F)F)c3)c(Cc3cccc4ccccc34)c(C(C)C)c2=O)S1(=O)=O` (stereo not drawn) [Compound 125, 7-isopropyl-8-(naphthalen-1-ylmethyl)-6-oxo-2-propyl-9-(3-(trifluoromethyl)phenyl)-3,4-dihydro-2H,6H-pyrido[1,2-e][1,2,5]thiadiazine-4-carboxylic acid 1,1-dioxide] yielded an IC50 [1, 9] of 1.3 to 4.5 µM, an IC50 [1, 3] of 2.7 µM and a remaining activity at 25 µM [2, 10] of 11 to 31%. For the same compound, the remaining activity at 25 µM [2, 11] was 25%, the remaining activity at 100 µM [2, 12] was 31 to 60% and the remaining activity at 100 µM [2, 13] was 44%.
`Nc1c(Cc2cccc3ccccc23)c(-c2cccc(C(F)(F)F)c2)c2n(c1=O)C(C(=O)O)CN(CCCCCO)S2(=O)=O` (stereo not drawn) [Compound 100, 7-amino-2-(5-hydroxypentyl)-8-(naphthalen-1-ylmethyl)-6-oxo-9-(3-(trifluoromethyl)phenyl)-3,4-dihydro-2H,6H-pyrido[1,2-e][1,2,5]thiadiazine-4-carboxylic acid 1,1-dioxide] was tested, and the IC50 [1, 9] was > 10 µM, the IC50 [1, 3] was 14.5 µM and the remaining activity at 25 µM [2, 10] was 31 to 60%. It also gave a remaining activity at 25 µM [2, 11] of 41%, a remaining activity at 100 µM [2, 12] of 31 to 60% and a remaining activity at 100 µM [2, 13] of 31%.

Source: patent publication US20230131899A1, “INHIBITORS OF MICROBIALLY INDUCED AMYLOID” (Axial Therapeutics, Inc., priority 2020, published 2023)
